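All cell lines were grown in 96-well plates and treated with compound for 48 hours. GI50 marks 50% less growth.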 Activity calls are given as the source filed them. Cut-off read from the data, not from the text of the source: active = GI50 up to about 1.1 µM and inactive = higher. Where only a bound is given, the exact number is not on record here.

These results are taken from ChEMBL document CHEMBL1201862, “PubChem BioAssay data set” (2004).

Common to all, as to assay: inhibition of tumour cell growth, NCI panel, 48 h
In assay [1] the test system is BT-549.
Assay [2] has as its system A498.
Assay [3] has as its system SF-295.
Assay [4] has as its system SW-620.
Assay [5] has as its system NCI/ADR-RES.
The test system of assay [6] is SK-MEL-5.
Assay [7] deals with ACHN.
In assay [8] the test system is MDA-MB-435.
Assay [9] relates to KM12.
Assay [10] concerns TK-10.
Assay [11] has as its system EKVX.
Assay [12] relates to MDA-MB-231.
Assay [13] concerns HOP-62.
Assay [14] has as its system M14.
For assay [15], the system named is HCT-15.
Assay [16] concerns PC-3.
Assay [17] relates to UACC-62.
The test system of assay [18] is CAKI-1.
Assay [19] concerns HCC 2998.

In the case of `O=C(O)CC(CC(=O)O)n1cccc1`, the GI50 in [1], in [2], in assay [3], in assay [4], in [5] and in assay [6] was > 100 µM (inactive) throughout. In addition, the GI50 in assay [7], in [8], in [9], in assay [10], in assay [11] and in [12] was > 100 µM (inactive) each time. The GI50 in assay [13] is > 100 µM (inactive); in [14], > 100 µM (inactive); in assay [15], above 100 µM; in assay [16], > 100 µM (inactive); in [17], > 100 µM (inactive); in assay [18] it was > 100 µM (inactive).
`O=C1CC(=O)NC(NN2C(=O)CSC2c2ccc(Cl)c(Cl)c2)=N1` (stereo not given): the GI50 in assay [1], in [2], in [3], in assay [19], in assay [4] and in assay [5] was > 100 µM (inactive) in each case. Moreover, the GI50 in assay [6] was > 100 µM (inactive); in assay [7] it was > 100 µM (inactive); in [8] it was 65 µM (inactive); in [9], 42.7 µM (inactive); in [10], > 100 µM (inactive); in assay [12] it was > 100 µM (inactive). Besides, the GI50 in assay [13] was > 100 µM (inactive); in [14], 31.6 µM (inactive); in assay [15], above 100 µM; in assay [16] it was > 100 µM (inactive); in assay [17], 42.6 µM (inactive); in assay [18] it was > 100 µM (inactive).
In the case of `CCOC(=O)c1nnn(CCCCO)c1C(=O)OCC`, the GI50 in assay [1], in [3], in assay [19], in [4], in assay [5] and in assay [6] was > 100 µM (inactive) in each case. Further, the GI50 is > 10 µM (inactive) in assay [7]; > 100 µM (inactive) in assay [8]; > 100 µM (inactive) in [9]; > 100 µM (inactive) in assay [10]; > 100 µM (inactive) in assay [11]; > 100 µM (inactive) in [12]. For the same compound, the GI50 in [13] was > 100 µM (inactive); in assay [15], above 100 µM; in assay [16] it was > 100 µM (inactive); in assay [17], > 100 µM (inactive); in assay [18] it was > 100 µM (inactive).
In the case of `C=CCN1C(=O)/C(=C/c2ccccc2)N=C1SC1OC(COC(C)=O)C(OC(C)=O)C(OC(C)=O)C1OC(C)=O` (stereo not given), the GI50 was 28.6 µM (inactive) in assay [1]; 38.1 µM (inactive) in assay [2]; 50.1 µM (inactive) in [3]; 49.7 µM (inactive) in assay [19]; 28.5 µM (inactive) in [4]; 26.2 µM (inactive) in assay [5]. The GI50 was 22.9 µM (inactive) in assay [7]; 26.9 µM (inactive) in assay [8]; 39.9 µM (inactive) in assay [9]; 72.8 µM (inactive) in assay [10]; 15.7 µM (inactive) in assay [11]; 18.6 µM (inactive) in assay [12]. For the same compound, the GI50 in [13] was 37.8 µM (inactive); in assay [14] it was 30 µM (inactive); in assay [15] it was 28.1 µM; in assay [16], 16.5 µM (inactive); in assay [17], 14.4 µM (inactive); in [18], 16.3 µM (inactive).
In the case of `N=c1oc2ccc([N+](=O)[O-])cc2cc1C(=O)NCc1ccccc1`, the GI50 in assay [1] is 14 µM (inactive); in [3] it was 36.4 µM (inactive); in [19], 32.1 µM (inactive); in assay [4], 20 µM (inactive); in assay [5], 16.5 µM (inactive); in [6] it was 18.7 µM (inactive). Moreover, the GI50 is 16.7 µM (inactive) in [7]; 23.1 µM (inactive) in assay [8]; 14.3 µM (inactive) in assay [9]; 29.2 µM (inactive) in assay [10]; 38.8 µM (inactive) in assay [11]; 22 µM (inactive) in [12]. The GI50 was 38.5 µM (inactive) in [13]; 23.4 µM (inactive) in assay [14]; 17.8 µM in assay [15]; 19.6 µM (inactive) in assay [16]; 20.2 µM (inactive) in assay [17]; 19.2 µM (inactive) in assay [18].
For `COC(=O)/C=C/c1cc(OC)c2oc(-c3ccc(OC)c(OC)c3)c(C(=O)OC)c2c1`, the GI50 in assay [1], in [2], in assay [3], in [19], in assay [4] and in [5] was > 100 µM (inactive) throughout. The GI50 in assay [6], in [7], in assay [8], in assay [9], in assay [10] and in [11] was > 100 µM (inactive) each time. In addition, the GI50 was > 100 µM (inactive) in [12]; > 100 µM (inactive) in assay [14]; above 100 µM in assay [15]; > 100 µM (inactive) in assay [16]; > 100 µM (inactive) in [17]; > 100 µM (inactive) in assay [18].
Regarding `C=CCc1cc(-c2n[nH]c(=S)[nH]2)ccc1N/N=N/c1ccc(C(=O)O)cc1`, the GI50 was 27.2 µM (inactive) in assay [1]; > 100 µM (inactive) in [2]; 52.4 µM (inactive) in [3]; > 100 µM (inactive) in assay [4]; > 100 µM (inactive) in assay [5]; 16.7 µM (inactive) in [6]. Also, the GI50 in assay [7] was 71.3 µM (inactive); in assay [8], 44.8 µM (inactive); in assay [9], 40.2 µM (inactive); in assay [10], > 100 µM (inactive); in assay [11] it was > 100 µM (inactive); in assay [12], > 100 µM (inactive). Moreover, the GI50 in [13] was 81.3 µM (inactive); in [14] it was > 100 µM (inactive); in assay [15] it was above 100 µM; in [16], > 100 µM (inactive); in assay [18] it was > 100 µM (inactive).
As to `COc1cc([C@H]2Oc3c(OC)cc(CCCO)cc3[C@@H]2CO)ccc1O` [DIHYDRODEHYDRODICONIFERY ALCOHOL], the GI50 in assay [1] is 94.4 µM (inactive); in assay [2] it was 50.6 µM (inactive); in assay [3], > 100 µM (inactive); in assay [19], > 100 µM (inactive); in assay [4], > 100 µM (inactive); in [5], > 100 µM (inactive). The GI50 in [6] was 39 µM (inactive); in assay [7], > 100 µM (inactive); in [8], > 100 µM (inactive); in assay [9], > 100 µM (inactive); in [10], > 100 µM (inactive); in assay [11], > 100 µM (inactive). The GI50 was 27.2 µM (inactive) in assay [12]; > 100 µM (inactive) in assay [13]; > 100 µM (inactive) in assay [14]; above 100 µM in assay [15]; > 100 µM (inactive) in assay [16]; 55.3 µM (inactive) in assay [17].
Take `CC(=O)OCC12C(OC(C)=O)C[C@@H](C)C3(CC(c4ccoc4)OC3=O)C1CCC(O)C21CO1` (stereo not given in full): the GI50 in assay [1], in assay [2], in assay [3], in [19], in [5] and in [6] was > 100 µM (inactive) each time. Further, the GI50 in [7], in assay [8], in assay [9], in [10], in assay [12] and in [13] was > 100 µM (inactive) throughout. Besides, the GI50 in assay [14] was > 100 µM (inactive); in assay [15] it was above 100 µM; in [16], > 100 µM (inactive); in assay [17], > 100 µM (inactive); in assay [18] it was > 100 µM (inactive).
Take `OCCCc1ccc2c(c1)[C@H](CO)[C@@H](c1ccc(O)cc1)O2`: the GI50 was 20.4 µM (inactive) in [1]; > 100 µM (inactive) in assay [2]; > 100 µM (inactive) in assay [3]; 16.6 µM (inactive) in assay [19]; > 100 µM (inactive) in [4]; > 100 µM (inactive) in [5]. The GI50 in assay [6] is 18.6 µM (inactive); in [7], > 100 µM (inactive); in [8] it was 69.3 µM (inactive); in assay [9], 82.4 µM (inactive); in assay [10] it was > 100 µM (inactive); in assay [11], > 100 µM (inactive). The GI50 in assay [12] is > 100 µM (inactive); in assay [13] it was > 100 µM (inactive); in assay [14], > 100 µM (inactive); in [15] it was above 100 µM; in assay [16] it was 50.4 µM (inactive); in assay [17], 51.9 µM (inactive).
Regarding `Cc1nn(C(=O)c2ccncc2)c2c1C(c1ccc(Cl)cc1)SC(=N)N2` (stereo not given), the GI50 in [1], in assay [3], in assay [19], in assay [4], in assay [5] and in [6] was > 10 µM (inactive) throughout. In addition, the GI50 in assay [7], in assay [8], in assay [9], in assay [10], in assay [11] and in assay [12] was > 10 µM (inactive) each time. Besides, the GI50 in assay [13] was > 10 µM (inactive); in assay [14], > 10 µM (inactive); in [15], above 10 µM; in assay [16], > 10 µM (inactive); in [17], > 10 µM (inactive); in assay [18], > 10 µM (inactive).
